Laboratory results as given in publication PMC8699884, “High-Throughput Functional Analysis of CFTR and Other Apically Localized Proteins in iPSC-Derived Human Intestinal Organoids” (Cells, 2021).

Target: T1, SLC6A14 (Homo sapiens, UniProt Q9UN76)
T1 construct: endogenous transporter in opened human intestinal organoids
T1 sequence (Q9UN76 1-642): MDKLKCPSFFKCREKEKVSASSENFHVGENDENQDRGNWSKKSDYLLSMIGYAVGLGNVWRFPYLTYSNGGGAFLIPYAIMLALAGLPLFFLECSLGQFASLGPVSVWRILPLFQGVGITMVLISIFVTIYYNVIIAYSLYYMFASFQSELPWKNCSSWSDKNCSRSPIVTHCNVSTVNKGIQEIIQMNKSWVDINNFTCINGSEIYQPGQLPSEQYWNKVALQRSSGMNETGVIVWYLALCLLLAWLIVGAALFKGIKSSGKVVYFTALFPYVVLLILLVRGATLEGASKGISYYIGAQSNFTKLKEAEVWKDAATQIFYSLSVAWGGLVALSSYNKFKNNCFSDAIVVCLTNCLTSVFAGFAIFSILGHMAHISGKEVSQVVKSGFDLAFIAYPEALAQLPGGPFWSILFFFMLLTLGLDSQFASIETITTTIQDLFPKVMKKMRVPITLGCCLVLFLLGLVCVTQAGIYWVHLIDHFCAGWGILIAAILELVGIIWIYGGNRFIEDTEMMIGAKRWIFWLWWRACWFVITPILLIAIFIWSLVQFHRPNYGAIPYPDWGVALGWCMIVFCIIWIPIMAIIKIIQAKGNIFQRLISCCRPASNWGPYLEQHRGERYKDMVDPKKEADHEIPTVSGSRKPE
Assay: FLIPR membrane potential (AAC) assay, α-MT-sensitive electrogenic uptake at […]
Type: cell-based

Q: With `N=C(N)NCCC[C@H](N)C(=O)O` [L-Arg] as the compound, how does the “FLIPR membrane potential (AAC) assay, α-MT-sensitive electrogenic uptake at 1 mM” value read?
A: the addition of arginine (L-Arg) to the apical surface of these opened organoids evokes apical membrane depolarization
